Reference: the NIST ThermoML archive (doi:10.1016/j.jct.2012.11.015)

What was measured:
[1] = xn = mol fraction of the nth substance listed; conditions: 101 kPa, Liquid, Vibrating tube method
[2] = Liquid; for speed of sound: Sing-around technique in a fixed-path interferometer; for mass density: Vibrating tube method
[3] = refractive index (Na D-line) (dimensionless); conditions: 298.15 K; 101.33 kPa; Liquid; Standard Abbe refractometry

CCCCCCCCO [octan-1-ol] + CN(C)C=O
mass density [kg/m3], [1]
Conditions	x2 = 0	x2 = 0.2198	x2 = 0.3728	x2 = 0.5208	x2 = 0.6277	x2 = 0.7118	x2 = 0.7877	x2 = 0.8519	x2 = 0.9085	x2 = 0.9556
298.15 K	821.222	835.186	847.253	861.646	874.238	885.914	898.138	909.952	921.843	932.914
303.15 K	818.209	831.811	843.584	857.568	869.964	881.458	893.435	905.109	916.796	927.592
308.15 K	814.742	828.086	839.752	853.623	865.852	877.239	889.113	900.709	912.287	923.224
313.15 K	810.629	823.708	835.263	849.056	861.125	872.405	884.137	895.506	907.01	917.847

CCCCCCCCCCO [decan-1-ol]
[2]
Conditions	mass density, 298.15 K [kg/m3]	mass density, 303.15 K [kg/m3]	mass density, 308.15 K [kg/m3]	mass density, 313.15 K [kg/m3]	speed of sound, 298.15 K [m/s]
101 kPa	–	822.853	819.427	816.383	–
101.33 kPa	826.562	–	–	–	1380

Conditions	refractive index
[3]	1.4348

CN(C)C=O [dimethylformamide] + CCCCCCCCCO
[1], x1 = 1
Conditions	mass density [kg/m3]
298.15 K	944.29
303.15 K	939.047
308.15 K	934.721
313.15 K	929.478

CCCCCCCCCO [nonan-1-ol] + CN(C)C=O
mass density [kg/m3], [1]
Conditions	x2 = 0	x2 = 0.2201	x2 = 0.3969	x2 = 0.5458	x2 = 0.6515	x2 = 0.7321	x2 = 0.8042	x2 = 0.8644	x2 = 0.9168	x2 = 0.9596
298.15 K	824.478	836.826	849.646	863.512	875.893	887.234	899.18	910.842	922.441	933.098
303.15 K	821.044	833.085	845.647	859.175	871.335	882.498	894.281	905.742	917.225	927.834
308.15 K	817.582	829.399	841.793	855.283	867.284	878.301	889.932	901.314	912.742	923.379
313.15 K	814.098	825.49	837.685	851.074	862.916	873.711	885.08	896.217	907.487	918.072

CCCCCCCCO [octan-1-ol]
[2]
Conditions	mass density, 298.15 K [kg/m3]	mass density, 303.15 K [kg/m3]	mass density, 308.15 K [kg/m3]	mass density, 313.15 K [kg/m3]	speed of sound, 298.15 K [m/s]
101 kPa	–	818.209	814.742	810.629	–
101.33 kPa	821.222	–	–	–	1347.8

Conditions	refractive index
[3]	1.4273

CCCCCCCCCO [nonan-1-ol]
[2]
Conditions	mass density, 298.15 K [kg/m3]	mass density, 303.15 K [kg/m3]	mass density, 308.15 K [kg/m3]	mass density, 313.15 K [kg/m3]	speed of sound, 298.15 K [m/s]
101 kPa	–	821.044	817.582	814.098	–
101.33 kPa	824.478	–	–	–	1365.5

Conditions	refractive index
[3]	1.4319

CN(C)C=O [dimethylformamide]
[2]
Conditions	mass density, 298.15 K [kg/m3]	mass density, 303.15 K [kg/m3]	mass density, 308.15 K [kg/m3]	mass density, 313.15 K [kg/m3]	speed of sound, 298.15 K [m/s]
101 kPa	–	939.047	934.721	929.478	–
101.33 kPa	944.29	–	–	–	1457.7

Conditions	refractive index
[3]	1.428

CN(C)C=O [dimethylformamide] + CCCCCCCCCCO
[1], x1 = 1
Conditions	mass density [kg/m3]
298.15 K	944.29
303.15 K	939.047
308.15 K	934.721
313.15 K	929.478

CCCCCCCCCCO [decan-1-ol] + CN(C)C=O
mass density [kg/m3], [1]
Conditions	x2 = 0	x2 = 0.2361	x2 = 0.4193	x2 = 0.5688	x2 = 0.6724	x2 = 0.7496	x2 = 0.8185	x2 = 0.8748	x2 = 0.923	x2 = 0.9632
298.15 K	826.562	838.6	851.13	864.685	876.794	887.827	899.61	910.986	922.298	933.094
303.15 K	822.853	834.589	846.845	860.269	872.216	883.031	894.603	905.795	916.997	927.772
308.15 K	819.427	830.903	843.033	856.394	868.282	879.008	890.399	901.448	912.559	923.333
313.15 K	816.383	827.267	839.221	852.343	863.94	874.443	885.574	896.397	907.34	918.051

CN(C)C=O [dimethylformamide] + CCCCCCCCO
[1], x1 = 1
Conditions	mass density [kg/m3]
298.15 K	944.29
303.15 K	939.047
308.15 K	934.721
313.15 K	929.478
